# Where two headings read alike, the source gives them in different places.
# Columns and labels:
# [1] = tested on: OCT2 A270S variant; test: Stereoselective uptake into OCT2 A270S variant-overexpressing HEK293 cells; details: 100 μM racemic substance, two minutes;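 also: uptake into HEK293 cells stably overexpressing human OCT2 variants, intracellular enantiomers quantified by chiral HPLC-MS/MS and normalized to total protein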
# [2] = biological target: T1, OCT1 (Homo sapiens, UniProt O15245); test: Stereoselective uptake into OCT1-overexpressing HEK293 cells; details: for Clint ± SEM: quotient of vmax over Km; for selectivity ratio at 2 min: human;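 as to all read-outs here: enantiomers quantified inside cells by chiral HPLC-MS/MS, uptake normalized to total protein from bicinchoninic acid assay, substrates applied in HBSS+ buffer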
# T1 sequence (O15245 1-554): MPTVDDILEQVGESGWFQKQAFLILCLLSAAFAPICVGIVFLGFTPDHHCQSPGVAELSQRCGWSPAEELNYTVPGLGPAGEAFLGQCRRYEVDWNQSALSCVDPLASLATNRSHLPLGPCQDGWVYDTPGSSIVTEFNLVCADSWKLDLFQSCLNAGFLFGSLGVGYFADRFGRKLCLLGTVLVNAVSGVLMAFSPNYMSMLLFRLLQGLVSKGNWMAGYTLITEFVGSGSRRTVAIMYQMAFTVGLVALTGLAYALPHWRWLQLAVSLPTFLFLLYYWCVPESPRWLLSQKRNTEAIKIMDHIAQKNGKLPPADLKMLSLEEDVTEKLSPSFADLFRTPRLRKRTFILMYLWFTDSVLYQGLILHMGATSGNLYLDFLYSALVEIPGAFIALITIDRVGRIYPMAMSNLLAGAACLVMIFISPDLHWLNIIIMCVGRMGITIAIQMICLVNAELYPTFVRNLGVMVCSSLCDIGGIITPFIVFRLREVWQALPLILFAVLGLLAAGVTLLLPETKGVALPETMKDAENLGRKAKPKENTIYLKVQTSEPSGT
# [3] = biological target: T2, OCT2 (Homo sapiens, UniProt O15244); test: Stereoselective uptake into OCT2 (wild-type)-overexpressing HEK293 cells; details: for Clint ± SEM / selectivity ratio at 2 min: OCT2; for Clint ± SEM: quotient of vmax over Km; for selectivity ratio at 2 min: human, ratio between enantiomers
# T2 sequence (O15244 1-555 S270A): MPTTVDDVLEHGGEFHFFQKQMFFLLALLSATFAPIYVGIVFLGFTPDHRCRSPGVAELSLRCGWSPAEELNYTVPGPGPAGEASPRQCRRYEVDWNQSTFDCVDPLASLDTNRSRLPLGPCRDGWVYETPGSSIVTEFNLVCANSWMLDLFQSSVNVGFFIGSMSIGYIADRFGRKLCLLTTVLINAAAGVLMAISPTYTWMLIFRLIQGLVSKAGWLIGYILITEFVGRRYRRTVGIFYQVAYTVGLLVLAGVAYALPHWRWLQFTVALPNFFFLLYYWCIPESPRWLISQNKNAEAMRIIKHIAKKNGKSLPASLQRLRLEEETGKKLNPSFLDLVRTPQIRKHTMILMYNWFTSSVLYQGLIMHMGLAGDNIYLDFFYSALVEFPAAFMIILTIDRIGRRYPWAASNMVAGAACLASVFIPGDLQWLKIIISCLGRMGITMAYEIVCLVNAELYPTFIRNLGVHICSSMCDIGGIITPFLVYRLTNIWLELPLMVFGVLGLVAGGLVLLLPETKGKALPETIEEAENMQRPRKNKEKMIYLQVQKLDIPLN
# Protocol: (§1) All transport experiments were carried out in HEK293 cells stably overexpressing human MATs or OCTs. […] All cells were regularly cultivated in DMEM supplemented with 10% (v/v) FCS, penicillin (100 U/mL) and streptomycin (100 μg/mL)and kept in culture for no longer than 30 passages.
# (§2) For the uptake experiments, 300,000 cells were plated in poly-D-lysine precoated 24-well plates 48 h ahead of the transport experiment. On the day of experiment, cells were initially washed once with 37 °C pre-warmed HBSS+ (Hanks buffered salt solution supplemented with 10 mM HEPES) and subsequently incubated with the substrates dissolved in pre-warmed HBSS+ for exactly two minutes. Incubation was stopped by adding ice-cold HBSS+ followed by two washing steps. After this, cells were lysed with 80% acetonitrile containing 10 ng/mL milnacipran as internal standard for high-performance liquid chromatography coupled to tandem mass spectrometry (HPLC-MS/MS) analysis. For every experiment, two additional wells per cell line were lysed using RIPA buffer for protein quantification. Total protein was quantified using the bicinchoninic acid assay [42]. This was later used for normalization of the uptake data.
# (§3) Intracellularly accumulated test substances were quantified by HPLC-MS/MS analysis using a Shimadzu Nexera HPLC system with a SIL-30AC autosampler, a CTO-20AC column oven, a LC-30AD pump, and a CBM-20A controller (Shimadzu, Kyoto, Japan). Stereoselective chromatography was carried out on a [sequence] CBH HPLC column (100 × 3 mm inner dimension with 5 μM particle size; Sigma-Aldrich, Darmstadt, Germany) with a corresponding 10 × 3 mm guard column. Reversed phased chromatography was carried out using an ammonium acetate (NH4Ac) buffered aqueous mobile phase with isopropyl alcohol (IPA) as organic solvent. […] The order of elution of the enantiomers was obtained from available reference literature [43] or by applying enantiopure reference compounds to the chiral HPLC. […] However, in every other case where the order of elution was available, the (R)-enantiomer eluted first. Given the structural similarity of the investigated substances and the fact that separation was performed on the same column with almost identical mobile phases, we assume that this order of elution for our compound set is always the (R)- before the (S)-enantiomer.
# (§4) Detection was performed with an API 4000 tandem mass spectrometer (AB SCIEX, Darmstadt, Germany) operating in multiple-reaction-monitoring mode. Quantification was performed using the Analyst 1.6.2 software (AB SCIEX, Darmstadt, Germany) and quantified by comparison to standard curves with known concentrations.
# (§5) All uptake data were normalized to protein content to account for variation in the number of seeded sells. Transporter-mediated net uptake was calculated by subtracting uptake into empty vector-transfected control cells from uptake into transporter-transfected cells. Kinetic parameters were then determined after non-linear regression following the Michaelis–Menten equation (v = vmax × [S]/(Km + [S])) using GraphPad Prism (Version 5.01 for Windows, GraphPad Software, La Jolla, CA, USA). Vmax refers to the maximum transport velocity and Km is defined as the substance concentration required to reach half of vmax. The intrinsic clearance Clint was calculated as the quotient of vmax over Km.
# (§6) HEK293 cells stably overexpressing wild-type or mutant OCT2 were incubated with 100 μM racemic substance for two minutes.
# [4] = biological target: T3, SERT (Homo sapiens, UniProt P31645); test: in vitro;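 also: uptake into HEK293 cells stably expressing human SERT over 2 min, enantiomers measured in cell lysate by chiral HPLC-MS/MS, normalized to total protein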
# [5] = biological target: T3, SERT; test: Stereoselective uptake into SERT-overexpressing HEK293 cells; details: for Clint ± SEM: quotient of vmax over Km;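 as to all read-outs here: uptake into HEK293 cells stably expressing human SERT over 2 min, enantiomers measured in cell lysate by chiral HPLC-MS/MS, normalized to total protein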
# [6] = tested on: OCT2 wild-type versus A270S variant; test: in vitro; details: human, Transporter selectivity, OCT2 wild-type versus A270S, 100 μM racemic substance, two minutes
# [7] = biological target: DAT (Homo sapiens, UniProt Q01959); test: Stereoselective uptake into DAT-overexpressing HEK293 cells; details: for Saturable net uptake / Clint ± SEM / Stereoselectivity Vmax / Stereoselectivity Km: DAT; for Saturable net uptake: result in words; for Clint ± SEM: quotient of vmax over Km; for Stereoselectivity Vmax / Stereoselectivity Km: ratio between enantiomers; for Stereoselectivity Vmax: given as for (R) or for 1; for Stereoselectivity Km: given as for (S) or for 2 (second-eluting); for selectivity ratio at 2 min: human;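 as to all read-outs here: intracellular accumulation measured by chiral HPLC-MS/MS in stably transfected HEK293 cells, normalized to total protein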
# [8] = biological target: NET (Homo sapiens, UniProt P23975); test: Stereoselective uptake into NET-overexpressing HEK293 cells; details: for Clint ± SEM: quotient of vmax over Km; for Stereoselectivity Vmax / Stereoselectivity Km: ratio between enantiomers; for Stereoselectivity Vmax: given as for (R) or for 1; for selectivity ratio at 2 min: human;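 as to all read-outs here: intracellular enantiomers quantified in cell lysates by chiral HPLC-MS/MS after a 2 min substrate incubation, with uptake normalized to total cellular protein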
# [9] = biological target: T4, OCT3 (Homo sapiens, UniProt O75751); test: Stereoselective uptake into OCT3-overexpressing HEK293 cells; details: for Clint ± SEM / Stereoselectivity Vmax / Stereoselectivity Km: OCT3; for Clint ± SEM: quotient of vmax over Km; for Stereoselectivity Vmax / Stereoselectivity Km: ratio between enantiomers; for Stereoselectivity Vmax: given as for (R) or for 1; for Stereoselectivity Km: given as for (R) or for 1 (first-eluting); for selectivity ratio at 2 min: human;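 as to all read-outs here: intracellular accumulation in HEK293 cells measured by chiral HPLC-MS/MS after a 2 min substrate exposure at 37 °C, uptake normalized to total protein (bicinchoninic acid assay)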
# T4 sequence (O75751 1-556): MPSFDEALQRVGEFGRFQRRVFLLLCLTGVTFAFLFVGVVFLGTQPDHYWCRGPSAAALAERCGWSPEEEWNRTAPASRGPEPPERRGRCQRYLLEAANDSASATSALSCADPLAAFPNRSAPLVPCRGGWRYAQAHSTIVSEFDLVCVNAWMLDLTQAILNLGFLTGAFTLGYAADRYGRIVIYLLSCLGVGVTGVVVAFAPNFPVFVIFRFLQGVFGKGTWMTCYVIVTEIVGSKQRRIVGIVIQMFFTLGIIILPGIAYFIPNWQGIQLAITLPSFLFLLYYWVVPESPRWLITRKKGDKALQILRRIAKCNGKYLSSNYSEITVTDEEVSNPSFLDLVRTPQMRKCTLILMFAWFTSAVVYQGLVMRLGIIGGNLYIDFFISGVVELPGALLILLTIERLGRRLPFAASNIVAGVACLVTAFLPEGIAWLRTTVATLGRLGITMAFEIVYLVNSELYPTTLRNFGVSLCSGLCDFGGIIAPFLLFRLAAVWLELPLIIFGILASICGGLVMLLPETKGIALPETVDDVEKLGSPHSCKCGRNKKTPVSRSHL
# [10] = biological target: T5, OCT2 (Homo sapiens, UniProt O15244, S270A); test: Stereoselective uptake into OCT2 (wild-type)-overexpressing HEK293 cells; details: OCT2, ratio between enantiomers
# T5 sequence (O15244 1-555 S270A): T2 sequence (O15244 1-555 S270A)
# Protocol: as §1, §2, §3, §4, §5, §6
# [11] = Stereoselectivity Km, OCT1, ratio between enantiomers, given as for (S) or for 2 (second-eluting)
# [12] = Stereoselectivity Vmax, OCT1, ratio between enantiomers, given as for (R) or for 1
# [13] = Stereoselectivity Vmax, given as for (R) or for 1
# [14] = SERT, ratio between enantiomers, given as for (S) or for 2
# [15] = Stereoselectivity ClInt, OCT1, ratio between enantiomers, given as for (R) or for 1 (also 1.00-fold for 1/2)
# [16] = Stereoselectivity ClInt, given as for (S) or for 2
# [17] = Stereoselectivity Km, given as for (R) or for 1 (first-eluting)
# [18] = SERT, ratio between enantiomers, given as for (S) or for 2 (second-eluting)
# [19] = NET, given as for (S) or for 2 (second-eluting)
# T3 sequence (P31645 whole entry): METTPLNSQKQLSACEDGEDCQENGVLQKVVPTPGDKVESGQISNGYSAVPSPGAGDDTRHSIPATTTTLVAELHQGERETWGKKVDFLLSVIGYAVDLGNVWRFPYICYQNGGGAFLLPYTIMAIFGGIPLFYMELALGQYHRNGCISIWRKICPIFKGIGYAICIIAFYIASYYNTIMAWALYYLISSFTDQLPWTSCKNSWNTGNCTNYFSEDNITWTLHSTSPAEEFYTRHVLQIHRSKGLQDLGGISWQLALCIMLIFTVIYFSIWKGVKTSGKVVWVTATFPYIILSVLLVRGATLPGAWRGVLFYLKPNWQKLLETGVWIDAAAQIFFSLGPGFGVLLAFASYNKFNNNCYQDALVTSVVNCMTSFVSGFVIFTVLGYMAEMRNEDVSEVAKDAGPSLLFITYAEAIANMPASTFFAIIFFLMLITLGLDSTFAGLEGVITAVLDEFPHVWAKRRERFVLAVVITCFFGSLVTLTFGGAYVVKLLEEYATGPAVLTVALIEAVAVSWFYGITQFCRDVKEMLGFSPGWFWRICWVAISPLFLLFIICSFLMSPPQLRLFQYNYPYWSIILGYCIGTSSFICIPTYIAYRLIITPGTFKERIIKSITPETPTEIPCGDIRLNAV
# Chain of DAT (Q01959 whole entry): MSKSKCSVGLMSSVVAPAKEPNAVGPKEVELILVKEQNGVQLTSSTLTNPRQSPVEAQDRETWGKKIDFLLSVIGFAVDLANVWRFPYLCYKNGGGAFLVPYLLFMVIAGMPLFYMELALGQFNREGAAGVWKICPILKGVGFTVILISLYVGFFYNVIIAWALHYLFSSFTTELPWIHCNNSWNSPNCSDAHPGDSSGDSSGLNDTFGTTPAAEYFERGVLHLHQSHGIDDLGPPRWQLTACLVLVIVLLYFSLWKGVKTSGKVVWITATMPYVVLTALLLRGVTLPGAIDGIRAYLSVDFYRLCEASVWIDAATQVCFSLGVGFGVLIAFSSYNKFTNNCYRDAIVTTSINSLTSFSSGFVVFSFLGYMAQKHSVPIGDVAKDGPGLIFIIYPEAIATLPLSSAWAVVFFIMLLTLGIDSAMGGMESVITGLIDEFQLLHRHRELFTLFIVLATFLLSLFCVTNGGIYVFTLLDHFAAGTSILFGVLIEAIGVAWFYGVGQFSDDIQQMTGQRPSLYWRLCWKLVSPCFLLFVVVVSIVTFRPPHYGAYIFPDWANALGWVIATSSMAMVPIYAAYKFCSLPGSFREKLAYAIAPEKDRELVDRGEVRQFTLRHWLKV
# Chain of NET (P23975 whole entry): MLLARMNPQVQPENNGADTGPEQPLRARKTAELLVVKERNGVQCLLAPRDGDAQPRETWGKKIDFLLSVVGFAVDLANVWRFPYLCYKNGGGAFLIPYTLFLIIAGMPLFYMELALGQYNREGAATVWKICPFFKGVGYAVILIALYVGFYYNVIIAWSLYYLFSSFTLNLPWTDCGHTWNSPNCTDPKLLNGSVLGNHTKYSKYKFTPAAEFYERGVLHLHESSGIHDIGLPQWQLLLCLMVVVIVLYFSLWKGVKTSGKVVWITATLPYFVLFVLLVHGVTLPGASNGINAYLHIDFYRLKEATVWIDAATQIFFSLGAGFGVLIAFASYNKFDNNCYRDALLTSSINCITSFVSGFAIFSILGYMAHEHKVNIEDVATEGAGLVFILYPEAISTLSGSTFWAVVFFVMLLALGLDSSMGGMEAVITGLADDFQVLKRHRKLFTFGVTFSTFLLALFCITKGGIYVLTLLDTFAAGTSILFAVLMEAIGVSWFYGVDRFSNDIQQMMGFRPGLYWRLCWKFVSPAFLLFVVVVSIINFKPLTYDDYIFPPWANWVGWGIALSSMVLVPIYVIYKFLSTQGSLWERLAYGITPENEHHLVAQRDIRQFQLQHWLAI
SMILES,Clint ± SEM ([2]; OCT1),"selectivity ratio at 2 min [2, 11]","selectivity ratio at 2 min [2, 12]",Clint ± SEM [3],"selectivity ratio at 2 min [3, 13]",selectivity ratio [4],Clint ± SEM ([5]; SERT),Saturable net uptake [7],Clint ± SEM [9],Stereoselectivity Vmax [9],Stereoselectivity Km [9],selectivity ratio at 2 min [9],"Stereoselectivity Vmax [5, 14]","selectivity ratio at 2 min, 100 μM ([6]; given as for WT)",Clint ± SEM ([8]; NET),Stereoselectivity Vmax ([8]; NET),selectivity ratio at 2 min [8],"selectivity ratio at 2 min [2, 15]","selectivity ratio at 2 min [3, 16]","selectivity ratio at 2 min [3, 17]",also measured
"CNCC(O)c1ccc(O)c(OC)c1 (single isomer, unassigned) [Metanephrine-1, Metanephrine]",8.09 mL × g Protein^−1 × min^−1,1.09,1.06,20.6 mL × g Protein^−1 × min^−1,2.13,1.01,0.58 mL × g Protein^−1 × min^−1,No saturable net uptake,25.9 mL × g Protein^−1 × min^−1,1.19 fold,1.19 fold,1,,,,,,,,,"Net uptake by A270S variant in comparison to the wild-type [1]: 120%; Vmax ± SEM ([2]; HEK293 cells overexpressing human OCT1, racemic substrate, two minutes, net uptake): 1082 pmol × mg Protein^−1 × min^−1; selectivity ratio at 2 min ([2]; Stereoselectivity ClInt): 1.16; Vmax ± SEM ([3]; HEK293 cells overexpressing human OCT2, racemic substrate, two minutes, net uptake): 1127 pmol × mg Protein^−1 × min^−1; selectivity ratio at 2 min ([3]; Stereoselectivity ClInt, given as for (R) or for 1): 2.66; selectivity ratio at 2 min ([3]; Stereoselectivity Km, given as for (S) or for 2 (second-eluting)): 1.25; Stereoselectivity Km [5]: 1.09 fold; Stereoselectivity Vmax [5]: 1.08 fold; selectivity ratio at 2 min, 100 μM ([6]; given as for A270S): 1.2; Saturable net uptake ([8]; NET, result in words): No saturable net uptake"
"COc1cc(C(O)CN)ccc1O (single isomer, unassigned) [Normetanephrine-1, Normetanephrine]",2.46 mL × g Protein^−1 × min^−1,,,9.24 mL × g Protein^−1 × min^−1,,1.28,2.23 mL × g Protein^−1 × min^−1,No saturable net uptake,19.4 mL × g Protein^−1 × min^−1,1.09 fold,1.22 fold,1.12,1.67 fold,1.21,2.71 mL × g Protein^−1 × min^−1,1.06 fold,1.28,,,,"Stereoselectivity Vmax ([2]; OCT1, ratio between enantiomers, given as for (R) or for 1): 1.47 fold; Stereoselectivity Km ([2]; OCT1, ratio between enantiomers, given as for (R) or for 1 (first-eluting)): 1.59 fold; Stereoselectivity ClInt ([2]; OCT1, ratio between enantiomers, given as for (S) or for 2): 1.08 fold; Stereoselectivity ClInt ([10]; given as for (R) or for 1): 1.56 fold; Stereoselectivity Km ([10]; given as for (R) or for 1 (first-eluting)): 1.32 fold; Stereoselectivity Vmax ([10]; given as for (S) or for 2): 2.06 fold; Stereoselectivity Km ([5]; SERT, ratio between enantiomers, given as for (R) or for 1 (first-eluting)): 1.08 fold; Stereoselectivity Km ([8]; NET, given as for (R) or for 1 (first-eluting)): 1.35 fold"
CNC[C@H](O)c1ccc(O)cc1 [(R)-Synephrine],21.0 mL × g Protein^−1 × min^−1,1.28,1.35,24.6 mL × g Protein^−1 × min^−1,2.05,1.13,0.69 mL × g Protein^−1 × min^−1,,26.3 mL × g Protein^−1 × min^−1,1.05 fold,1.11 fold,1.06,1.35 fold,1.41,37.3 mL × g Protein^−1 × min^−1,1.80 fold,4.7,1.73,1.01,2.07,"Stereoselectivity Km [5, 18]: 1.52 fold; Clint ± SEM [7]: 23.1 mL × g Protein^−1 × min^−1; Stereoselectivity Vmax [7]: 1.84 fold; Stereoselectivity Km [7]: 1.21 fold; selectivity ratio at 2 min [7]: 2.23; Stereoselectivity Km [8, 19]: 2.61 fold"
CNC[C@@H](O)c1ccc(O)cc1 [(S)-Synephrine],12.1 mL × g Protein^−1 × min^−1,1.28,1.35,24.8 mL × g Protein^−1 × min^−1,2.05,1.13,0.61 mL × g Protein^−1 × min^−1,,27.8 mL × g Protein^−1 × min^−1,1.05 fold,1.11 fold,1.06,1.35 fold,1.2,7.92 mL × g Protein^−1 × min^−1,1.80 fold,4.7,1.73,1.01,2.07,"Stereoselectivity Km [5, 18]: 1.52 fold; Clint ± SEM [7]: 10.4 mL × g Protein^−1 × min^−1; Stereoselectivity Vmax [7]: 1.84 fold; Stereoselectivity Km [7]: 1.21 fold; selectivity ratio at 2 min [7]: 2.23; Stereoselectivity Km [8, 19]: 2.61 fold"

# — paper PMC9599461, “Stereoselectivity in the Membrane Transport of Phenylethylamine Derivatives by Human Monoamine Transporters and Organic Cation Transporters 1, 2, and 3” (Biomolecules, 2022)
